Experimental data published in patent publication US10118930B2, “Piperidinylpyrazolopyrimidinones and their use” (BAYER PHARMA AKTIENGESELLSCHAFT, priority 2015, dated 2018).
Structures can show the parent of a compound that is named as a salt.

tested on: clot lysis (fibrinolysis) in diluted human citrated plasma, tPA-induced; assay: Plasma-based clot lysis assay (5%); assay type: biochemical; settings: human citrated platelet-poor plasma 5%, fibrinogen 3 μM, CaCl2 10 mM, tPA 0.2 nM, 37° C., OD at 405 nm
Outline: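 Clot formation and breakdown triggered by CaCl2 (10 mM final) plus tPA (0.2 nM final) at 37° C, in 5% diluted human plasma supplemented with 3 μM fibrinogen (HEPES/NaCl/Brij buffer, pH 7). IC50 obtained from time courses relative to a blank control.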

Row | IC50 [nM] | Structure (SMILES)
1 | 41 | O=c1cc(C2CCNCC2)n2ncc(-c3nc(-c4cccc(Cl)c4Cl)no3)c2[nH]1 [Example 143, 3-[3-(2,3-Dichlorophenyl)-1,2,4-oxadiazol-5-yl]-7-(piperidin-4-yl)pyrazolo[1,5-a]pyrimidin-5 (4H)-one hydrochloride]
2 | 38 | O=c1cc(C2CCNCC2)n2ncc(-c3nc(-c4cc(C(F)(F)F)ccn4)no3)c2[nH]1 [Example 147, 7-(piperidin-4-yl)-3-{3-[4-(trifluoromethyl)pyridin-2-yl]-1,2,4-oxadiazol-5-yl}pyrazolo[1,5-a]pyrimidin-5(4H)-one hydrochloride]
3 | 59 | CC(C)OC(=O)c1c(C(F)(F)F)nn2c(C3CCNCC3)cc(=O)[nH]c12 [Example 460, Propan-2-yl 5-oxo-7-(piperidin-4-yl)-2-(trifluoromethyl)-4,5-dihydropyrazolo[1,5-a]pyrimidine-3-carboxylate hydrochloride]
4 | 17 | Cc1ccccc1CNC(=O)c1cnn2c(C3CCNCC3)cc(=O)[nH]c12 [Example 86, N-(2-methylbenzyl)-5-oxo-7-(piperidin-4-yl)-4,5-dihydropyrazolo[1,5-a]pyrimidine-3-carboxamide hydrochloride]
5 | 27 | O=c1cc(C2CCNCC2)n2ncc(-c3nc(-c4ccc(OC(F)(F)F)cc4)no3)c2[nH]1 [Example 115, 7-(Piperidin-4-yl)-3-{3-[4-(trifluoromethoxy)phenyl]-1,2,4-oxadiazol-5-yl}pyrazolo[1,5-a]pyrimidin-5(4H)-one hydrochloride]
6 | 28 | Cc1ccc(S(C)(=O)=NC(=O)c2cnn3c(C4CCNCC4)cc(=O)[nH]c23)cc1 (stereo not shown) [Example 36, N-[Methyl(4-methylphenyl)oxido-lambda^6-sulfanylidene]-5-oxo-7-(piperidin-4-yl)-4,5-dihydropyrazolo[1,5-a]pyrimidine-3-carboxamide hydrochloride]
7 | 37 | Cc1nn2c(C3CCNCC3)cc(=O)[nH]c2c1C(=O)N(C)CC1CC1 [Example 425, N-(cyclopropyl-methyl)-N,2-dimethyl-5-oxo-7-(piperidin-4-yl)-4,5-dihydro-pyrazolo[1,5-a] pyrimidine-3-carboxamide hydrochloride]
8 | 15 | CC(C)=Cc1nc(-c2cnn3c(C4CCNCC4)cc(=O)[nH]c23)no1 [Example 383, 3-[5-(2-Methylprop-1-en-1-yl)-1,2,4-oxadiazol-3-yl]-7-(piperidin-4-yl)pyrazolo[1,5-a]pyrimidin-5 (4H)-one hydrochloride]
9 | 40 | O=c1cc(C2CCNCC2)n2ncc(-c3nc(-c4cccc(Cl)c4)cs3)c2[nH]1 [Example 163, 3-[4-(3-chlorophenyl)-1,3-thiazol-2-yl]-7-(piperidin-4-yl)pyrazolo[1,5-a]pyrimidin-5 (4H)-one hydrochloride]
10 | 9 | O=c1cc(C2CCNCC2)n2ncc(-c3nc(C4CCCCC4)cs3)c2[nH]1 [Example 335, 3-(4-cyclohexyl-1,3-thiazol-2-yl)-7-(piperidin-4-yl)pyrazolo[1,5-a]pyrimidin-5(4H)-one hydrochloride]
11 | 29 | O=C(N=S1(=O)CCOCC1)c1cnn2c(C3CCNCC3)cc(=O)[nH]c12 [Example 37, N-(4-Oxido-1,4-lambda^4-oxathian-4-ylidene)-5-oxo-7-(piperidin-4-yl)-4,5-dihydropyrazolo[1,5-a]pyrimidine-3-carboxamide hydrochloride]
12 | 12 | CCCc1noc(-c2cnn3c(C4CCNCC4)cc(=O)[nH]c23)n1 [Example 34, 7-(Piperidin-4-yl)-3-(3-propyl-1,2,4-oxadiazol-5-yl)pyrazolo[1,5-a]pyrimidin-5(4H)-one hydrochloride]

same assay, conditions: human citrated platelet-poor plasma 5%, fibrinogen 3 μM, CaCl2 10 mM, tPA 0.2 nM, 37° C., OD at 405 nm; acetate

Row | IC50 [nM] | Structure (SMILES)
13 | 30 | Cc1ccccc1-c1csc(-c2cnn3c(C4CCNCC4)cc(=O)[nH]c23)n1 [Example 448, 3-[4-(2-methylphenyl)-1,3-thiazol-2-yl]-7-(piperidin-4-yl)pyrazolo[1,5-a]pyrimidin-5(4H)-one acetate]
